Experimental data reported in patent US20030100548A1, “Arylpiperazines and their use as metallaproteinase inhibiting agents (mmp)” (priority 2000, published 2003).

- melting point: 73 °C
Compound: O=S(=O)(CC(CS)Cc1ccccc1)N1CCN(c2ccc(F)cc2)CC1 (stereo not shown) [Example 1, N-(4-fluorophenyl)-N′-(2-benzyl-3-mercaptopropane-1-sulphonyl)-piperazine]
